Test results published in patent US8350062B2, “Synthesis and anticancer activity of new actin-targeting small-molecule agents” (priority 2009, dated 2013).

Columns and labels:
filamentous actin = filamentous actin (Oryctolagus cuniculus, UniProt P68135); assay: TIRF microscopy of Oregon green-labeled actin filaments with analog 10; type: biochemical; settings: 1.5 μM solution
Procedure: Encouraged by the initially observed potent G-actin binding affinity of 10, we next employed time-lapse total internal reflection fluorescence (TIRF) microscopy to examine the effects of this compound on depolymerization of filamentous actin in vitro. We initially assembled individual actin filaments by elongating them from a pool of 1.0 μM Mg-ATP-actin monomers supplemented with a trace of […] Mg-ATP-actin monomers labeled with Oregon green for visualization. The resulting filaments were incubated with either a solution of buffer or a 1.5 μM solution of 10 and imaged with TIRF microscopy. […] Similar to our previous observations, the mechanism of actin depolymerization by 10 entailed formation of multiple filaments breaks, which in turn created subsequent points for actin disassembly.

F-actin in A549 cells = assay: Fluorescent visualization of F-actin in A549 cells (Alexa Fluor 488 phalloidin); type: cell-based, human
Procedure: The presence of the enone increased the severing efficiency of the analogs three-fold. […] We determined whether it was the depletion of actin filaments by analogs 2-5 which was responsible for the growth inhibition of A549 cells. Each of the compounds was incubated with A549 cells for 2 h at a concentration that exceeded the GI50 value by a factor of 5. The cells were then fixed, permeabilized and filamentous actin was visualized by fluorescence microscopy following Alexa Fluor 488 phalloidin staining. […] They induced depolymerization at 150 nM for bistramide A (1), 500 nM for analog 2 and 2 μM for analog 3. Analogs 4 and 5 induced depolymerization of actin only at concentrations as high as 100 μM. […] This observation was consistent with the enhanced cell-based activity of the compounds containing the C(1)-C(4) enone moiety.
Fluorescent Visualization Of F-Actin In Cells. A549 cells grown on coverslips were incubated with analogs 4-8 (100 μM) analog 3 (2 μM) or analog 2 (500 nM) or bistramide A (150 nM) in F-12K cell culture medium for 2 h, fixed with 3% formaldehyde in PBS at 25° C. for 5 min and permeabilized with 0.1% Triton X-100 at 25° C. for 10 min. After washing with PBS, coverslips were stained with Alexa Fluor 488 Phalloidin and visualized by fluorescence microscopy.

PC3 cells = assay: Growth of PC3 cells over 96 h; type: cell-based, human; settings: same growth conditions
Procedure: Cell Viability Assays. All assays were performed using at least three replicate wells for each concentration tested. Original 10-25 mM DMSO stock solution of bistramide A or its analogs was diluted to 100 μM for analogs 4-8, 10 μM for analog 3, 5 μM for analog 2 and 1 μM for bistramide A (1) with F-12K cell culture media supplemented with 10% fetal bovine serum, 100 I.U./ml penicillin, 100 μg/ml streptomycin and 2 mM L-glutamine. Two-fold serial dilutions were performed and used for cell-based assays. A549 cells were grown in 96-well white plates at the density of 1,000 cells per well in 100 μl F-12K cell culture media. Cells were allowed to attach over 24 h and treated with 30 μl of the drug solution and incubated further for 48 h. After incubation, cell viability was determined using luminescence-based commercial kit (CellTiter-Glo, Promega) and luminescence measured using a Wallac Victor 3 plate reader. To measure cell growth inhibition, viability assays were performed twice: at initial time point T0 and after 48 h incubation (T48). Change in the number of viable cells was measured, and GI50 was calculated from sigmoidal plots. For analog 10, growth of A549 and PC3 cells was monitored over 96 h following addition of the drug. 100 μM was the highest concentration tested. At no point did the total DMSO conc. exceed 1%.

[1] = test system: 60 different human tumor cell lines; assay: NCI 60 cell line single dose screen, whole panel; type: cell-based; settings: 10 micromolar, mean over cell lines
Excerpt: Analog 10 was screened utilizing 60 different human tumor cell lines, representing leukemia, melanoma and cancers of the lung, colon, brain, ovary, breast, prostate, and kidney in order to show selective growth inhibition or cell killing of particular tumor cell lines. This screen is unique in that the complexity of a 60 cell line dose response produced by a given compound results in a biological response pattern which can be utilized in pattern recognition algorithms (COMPARE program. See: http://dtp.nci.nih.gov/docs/compare/compare.html). Using these algorithms, it is possible to assign a putative mechanism of action to a test compound, or to determine that the response pattern is unique and not similar to that of any of the standard prototype compounds included in the NCI database. […]
Following drug addition, the plates are incubated for an additional 48 h at 37° C., 5% CO2, 95% air, and 100% relative humidity. […] Bound stain is subsequently solubilized with 10 mM trizma base, and the absorbance is read on an automated plate reader at a wavelength of 515 nm. […] Using the absorbance measurements [time zero, (Tz), control growth, (C), and test growth in the presence of drug (Ti)], the percentage growth is calculated.

HL-60(TB) = assay: NCI 60 cell line single dose screen; type: cell-based, human; settings: HL-60(TB) (Leukemia), 10 micromolar, 48 h
MDA-MB-231/ATCC = assay: NCI 60 cell line single dose screen; type: cell-based, human; settings: MDA-MB-231/ATCC (Breast Cancer), 10 micromolar, 48 h
Excerpt: Analog 10 was screened utilizing 60 different human tumor cell lines, representing leukemia, melanoma and cancers of the lung, colon, brain, ovary, breast, prostate, and kidney in order to show selective growth inhibition or cell killing of particular tumor cell lines. This screen is unique in that the complexity of a 60 cell line dose response produced by a given compound results in a biological response pattern which can be utilized in pattern recognition algorithms (COMPARE program. See: http://dtp.nci.nih.gov/docs/compare/compare.html). Using these algorithms, it is possible to assign a putative mechanism of action to a test compound, or to determine that the response pattern is unique and not similar to that of any of the standard prototype compounds included in the NCI database. In addition, following characterization of various cellular molecular targets in the 60 cell lines, it may be possible to select compounds most likely to interact with a specific molecular target.
The screening is a two-stage process, beginning with the evaluation of the compound against the 60 cell lines at a single dose of 10 uM.
The human tumor cell lines of the cancer screening panel are grown in RPMI 1640 medium containing 5% fetal bovine serum and 2 mM L-glutamine. For a typical screening experiment, cells are inoculated into 96 well microtiter plates in 100 μL at plating densities ranging from 5,000 to 40,000 cells/well depending on the doubling time of individual cell lines. After cell inoculation, the microtiter plates are incubated at 37° C., 5% CO2, 95% air and 100% relative humidity for 24 h prior to addition of experimental drug.
After 24 h, two plates of each cell line are fixed in situ with TCA, to represent a measurement of the cell population for each cell line at the time of drug addition (Tz). Experimental drugs are solubilized in dimethyl sulfoxide at 400-fold the desired final maximum test concentration and stored frozen prior to use. At the time of drug addition, an aliquot of frozen concentrate is thawed and diluted to twice the desired final maximum test concentration with complete medium containing 50 μg/ml gentamicin.
Following drug addition, the plates are incubated for an additional 48 h at 37° C., 5% CO2, 95% air, and 100% relative humidity. For adherent cells, the assay is terminated by the addition of cold TCA. Cells are fixed in situ by the gentle addition of […] of cold 50% (w/v) TCA (final concentration, 10% TCA) and incubated for 60 minutes at 4° C. The supernatant is discarded, and the plates are washed five times with tap water and air dried. Sulforhodamine B (SRB) solution (100 μl) at 0.4% (w/v) in 1% acetic acid is added to each well, and plates are incubated for 10 minutes at room temperature. After staining, unbound dye is removed by washing five times with 1% acetic acid and the plates are air dried. Bound stain is subsequently solubilized with 10 mM trizma base, and the absorbance is read on an automated plate reader at a wavelength of 515 nm. For suspension cells, the methodology is the same except that the assay is terminated by fixing settled cells at the bottom of the wells by gently adding 50 μl of 80% TCA (final concentration, 16% TCA). Using the absorbance measurements [time zero, (Tz), control growth, (C), and test growth in the presence of drug (Ti)], the percentage growth is calculated.

Structure (SMILES): COCCC(=O)NC[C@H](O)[C@H](C)C(=O)NCCC[C@H]1O[C@@]2(CCC[C@@H](CC[C@H](C)/C=C(\C)[C@H](C)O)O2)CCC1C (stereo partly shown) [Analog 10]
- effect on F-actin filaments (filamentous actin): rapid filament disassembly
- F-actin depolymerization in A549 cells (F-actin in A549 cells): depolymerized F-actin in A549 cells in a dose-dependent manner
- concentration at which noticeable actin disassembly was detected (F-actin in A549 cells; A549 cells): 250 nM
- sensitivity of PC3 cells compared with A549 cells (PC3 cells): substantially less sensitive
- Growth Percent, Mean [1]: 50.03%
- Growth Percent (HL-60(TB)): 51.51%
- Growth Percent (MDA-MB-231/ATCC): 43.18%
